Laboratory results from patent US20070142450A1, “Novel urea derivatives and their medical use” (priority 2004, published 2007).

test system: male Wistar rats; experiment: Morris Water Maze (MWM), scopolamine-induced impairment of spatial learning and memory; format: in vivo, rat; details: 30 mg/kg i.p. 30 minutes prior to test start, with 0.1 mg/kg Scopolamine s.c., four trials per day, four days
Description: The Morris Water Maze (MWM) is the favored test in behavioral neuroscience for the study of hippocampal-dependent learning and memory (see Morris R G: Developments of a Water Maze procedure for studying spatial learning in the rat; J. Neurosci. Meth. 1984 11 47-60). It is a standardized behavioral task to test spatial navigation in rodents, and is a highly sensitive test to assess cognition in animals.
In the MWM performance animals have to remember the position of a submerged platform (10×10 cm) within a circular (Ø 150 cm) water tank using visual spatial cues. A number of eight (n=8) male Wistar rats were used for each group in each experiment. In four trials per day, for four consecutive acquisition days, they are released from different starting points close to the wall of the tank to find their way to the submerged platform. Spatial learning abilty is evaluated by latency to locate the platform.
This learning impairment was reversed by 30 mg/kg of Compound 1 of the invention (i.p. administration 30 minutes prior to test start).

| Compound | Reversal of scopolamine-induced learning impairment (latency to locate the platform) |
| --- | --- |
| O=C(Nc1cc(Cl)ccc1O)Nc1cc(C(F)(F)F)ccc1Cl [Compound 1, N-(3-Chloro-6-hydroxy-phenyl)-N′-(2-chloro-5-trifluoromethyl-phenyl)urea] | reversed |

same assay, conditions: s.c. administration 30 minutes prior to test start

| Compound | Effect on spatial reference memory as measured in MWM (latency to locate the platform) |
| --- | --- |
| CN1[C@@H]2C[C@@H](OC(=O)[C@H](CO)c3ccccc3)C[C@H]1[C@@H]1O[C@@H]12 [Scopolamine, reference compound] | significantly impairs |

test system: not given; experiment: not given; details: not given

| Compound | melting point [°C] |
| --- | --- |
| O=C(Nc1ccc(-c2ccccc2)cc1)Nc1cc(Cl)c(O)c(Cl)c1 | 249 to 251 |
| Cc1cc(O)ccc1NC(=O)Nc1cc(C(F)(F)F)ccc1Cl | 210 to 211 |
| Cc1cc(O)ccc1NC(=O)Nc1cccc(C(F)(F)F)c1 | 185 to 186 |
| O=C(Nc1cccc(C(F)(F)F)c1)Nc1cc(Cl)c(O)c(Cl)c1 | 215 to 218 |
| O=C(Nc1ccc(-c2ccccc2)cc1)Nc1cc(Cl)ccc1O | 191 to 192 |
| O=C(Nc1cc(Cl)c(O)c(Cl)c1)Nc1cc(C(F)(F)F)ccc1Cl | 213 to 221 |
| O=C(Nc1cccc(-c2ccccc2)c1)Nc1cc(Cl)c(O)c(Cl)c1 | 252 to 253 |

The next lines start with the values.

| melting point [°C] | Compound |
| --- | --- |
| 188 to 190 | Cc1cc(O)cc(NC(=O)Nc2cccc(C(F)(F)F)c2)c1 |
| 194 to 196 | O=C(Nc1cccc(C(F)(F)F)c1)Nc1ccc(O)c(Cl)c1 |
| 174 to 175 | O=C(Nc1cccc(C(F)(F)F)c1)Nc1c(O)cccc1[N+](=O)[O-] |
| 225 to 226 | COc1ccc(Cl)cc1NC(=O)Nc1ccc([N+](=O)[O-])cc1O |
| 190 to 192 | Cc1cc(O)cc(NC(=O)Nc2cc(C(F)(F)F)ccc2Cl)c1 |
| 207 to 209 | Nc1cc(Cl)c(Cl)cc1NC(=O)Nc1cc(C(F)(F)F)ccc1Cl |
| 172 to 176 | COc1ccc(Cl)cc1NC(=O)Nc1cc(C(F)(F)F)ccc1Cl |
